Laboratory results published in ChEMBL document CHEMBL1932976, “Synthesis of novel 1,3-diaryl pyrazole derivatives bearing rhodanine-3-fatty acid moieties as potential antibacterial agents” (2012).
Converted amounts (≈) assume the structure as drawn.

Experiments:
Type in all cases: functional
[1] = test system: Escherichia coli; test: Antibacterial activity against Escherichia coli CCARM 1356 after 20 hrs by twofold serial dilution technique; conditions: CCARM 1356, 20 h
[2] = test system: Staphylococcus aureus; test: Antibacterial activity against quinolone-resistant Staphylococcus aureus CCARM 3519 after 20 hrs by twofold serial dilution technique; conditions: CCARM 3519, 20 h
[3] = test system: Staphylococcus aureus; test: Antibacterial activity against methicillin-resistant Staphylococcus aureus CCARM 3167 after 20 hrs by twofold serial dilution technique; conditions: CCARM 3167, 20 h
[4] = test system: Staphylococcus aureus; test: Antibacterial activity against methicillin-resistant Staphylococcus aureus CCARM 3506 after 20 hrs by twofold serial dilution technique; conditions: CCARM 3506, 20 h
[5] = test system: Escherichia coli; test: Antibacterial activity against Escherichia coli CCARM 1924 after 20 hrs by twofold serial dilution technique; conditions: CCARM 1924, 20 h
[6] = test system: Staphylococcus aureus; test: Antibacterial activity against Staphylococcus aureus RN4220 after 20 hrs by twofold serial dilution technique; conditions: RN4220, 20 h
[7] = test system: Staphylococcus aureus; test: Antibacterial activity against quinolone-resistant Staphylococcus aureus CCARM 3505 after 20 hrs by twofold serial dilution technique; conditions: CCARM 3505, 20 h
[8] = test system: Staphylococcus aureus; test: Antibacterial activity against Staphylococcus aureus KCTC 503 after 20 hrs by twofold serial dilution technique; conditions: KCTC 503, 20 h

| Structure (SMILES) | MIC [1] [µg/mL] | MIC [2] [µg/mL] | MIC [3] [µg/mL] | MIC [4] [µg/mL] | MIC [5] [µg/mL] | MIC [6] [µg/mL] | MIC [7] [µg/mL] | MIC [8] [µg/mL] |
| --- | --- | --- | --- | --- | --- | --- | --- | --- |
| O=C(O)CCCN1C(=O)/C(=C/c2cn(-c3ccccc3)nc2-c2ccc(Cl)cc2)SC1=S | > 64 | 4 (≈ 8.26 µM) | 4 (≈ 8.26 µM) | 4 (≈ 8.26 µM) | > 64 | 8 (≈ 16.5 µM) | 4 (≈ 8.26 µM) | 4 (≈ 8.26 µM) |
| O=C(O)CCN1C(=O)/C(=C/c2cn(-c3ccccc3)nc2-c2ccc(Cl)cc2)SC1=S | > 64 | 8 (≈ 17 µM) | 4 (≈ 8.51 µM) | 4 (≈ 8.51 µM) | > 64 | 8 (≈ 17 µM) | 4 (≈ 8.51 µM) | 16 (≈ 34 µM) |
| CCn1cc(C(=O)O)c(=O)c2cc(F)c(N3CCNCC3)cc21 [NORFLOXACIN] | 16 (≈ 50.1 µM) | > 64 | 8 (≈ 25.1 µM) | 4 (≈ 12.5 µM) | 16 (≈ 50.1 µM) | 2 (≈ 6.26 µM) | > 64 | 2 (≈ 6.26 µM) |
| Cc1ccc(-c2nn(-c3ccccc3)cc2/C=C2\SC(=S)N(CC(=O)O)C2=O)c(C)c1 | > 64 | 16 (≈ 35.6 µM) | 16 (≈ 35.6 µM) | 16 (≈ 35.6 µM) | > 64 | 16 (≈ 35.6 µM) | 16 (≈ 35.6 µM) | 16 (≈ 35.6 µM) |
| O=C(O)CN1C(=O)/C(=C/c2cn(-c3ccccc3)nc2-c2ccccc2Cl)SC1=S | > 64 | 32 (≈ 70.2 µM) | 16 (≈ 35.1 µM) | 32 (≈ 70.2 µM) | > 64 | 32 (≈ 70.2 µM) | 32 (≈ 70.2 µM) | 32 (≈ 70.2 µM) |
| O=C(O)CN1C(=O)/C(=C/c2cn(-c3ccccc3)nc2-c2cccc(Cl)c2)SC1=S | > 64 | 64 (≈ 140 µM) | 16 (≈ 35.1 µM) | 32 (≈ 70.2 µM) | > 64 | 16 (≈ 35.1 µM) | 16 (≈ 35.1 µM) | > 64 |
| Cc1onc(-c2ccccc2)c1C(=O)N[C@@H]1C(=O)N2[C@@H]1SC(C)(C)[C@@H]2C(=O)O [OXACILLIN] | > 64 | 1 (≈ 2.49 µM) | > 64 | > 64 | > 64 | 1 (≈ 2.49 µM) | 1 (≈ 2.49 µM) | 1 (≈ 2.49 µM) |
| Cc1ccc(-c2nn(-c3ccccc3)cc2/C=C2\SC(=S)N(CC(=O)O)C2=O)cc1 | > 64 | 64 (≈ 147 µM) | 16 (≈ 36.7 µM) | 16 (≈ 36.7 µM) | > 64 | 16 (≈ 36.7 µM) | 16 (≈ 36.7 µM) | > 64 |
| COc1cccc(-c2nn(-c3ccccc3)cc2/C=C2\SC(=S)N(CC(=O)O)C2=O)c1 | > 64 | 64 (≈ 142 µM) | 32 (≈ 70.9 µM) | 64 (≈ 142 µM) | > 64 | 64 (≈ 142 µM) | 64 (≈ 142 µM) | 64 (≈ 142 µM) |
| O=C(O)CN1C(=O)/C(=C/c2cn(-c3ccccc3)nc2-c2ccc3ccccc3c2)SC1=S | > 64 |  |  |  | > 64 | > 64 |  | > 64 |
| O=C(O)CCCCCN1C(=O)/C(=C/c2cn(-c3ccccc3)nc2-c2ccc(Cl)cc2)SC1=S | > 64 |  |  |  | > 64 | > 64 |  | > 64 |
| O=C(O)CN1C(=O)/C(=C/c2cn(-c3ccccc3)nc2-c2ccc(F)cc2)SC1=S | > 64 |  |  |  | > 64 | > 64 |  | > 64 |
| O=C(O)CN1C(=O)/C(=C/c2cn(-c3ccccc3)nc2-c2ccc([N+](=O)[O-])cc2)SC1=S | > 64 |  |  |  | > 64 | > 64 |  | > 64 |
| O=C(O)CN1C(=O)/C(=C/c2cn(-c3ccccc3)nc2-c2ccc(Cl)cc2)SC1=S | > 64 | 16 (≈ 35.1 µM) | 8 (≈ 17.5 µM) | 8 (≈ 17.5 µM) | > 64 | 8 (≈ 17.5 µM) | 8 (≈ 17.5 µM) | 8 (≈ 17.5 µM) |
| O=C(O)CCCCN1C(=O)/C(=C/c2cn(-c3ccccc3)nc2-c2ccc(Cl)cc2Cl)SC1=S | > 64 | 2 (≈ 3.76 µM) | 2 (≈ 3.76 µM) | 2 (≈ 3.76 µM) | > 64 | 4 (≈ 7.51 µM) | 2 (≈ 3.76 µM) | 4 (≈ 7.51 µM) |
| O=C(O)CCN1C(=O)/C(=C/c2cn(-c3ccccc3)nc2-c2ccc(Cl)cc2Cl)SC1=S | > 64 | 4 (≈ 7.93 µM) | 4 (≈ 7.93 µM) | 4 (≈ 7.93 µM) | > 64 | 8 (≈ 15.9 µM) | 4 (≈ 7.93 µM) | 4 (≈ 7.93 µM) |
| O=C(O)CN1C(=O)/C(=C/c2cn(-c3ccccc3)nc2-c2ccc(Br)cc2)SC1=S | > 64 | 8 (≈ 16 µM) | 8 (≈ 16 µM) | 8 (≈ 16 µM) | > 64 | 8 (≈ 16 µM) | 8 (≈ 16 µM) | 8 (≈ 16 µM) |
| O=C(O)CN1C(=O)/C(=C/c2cn(-c3ccccc3)nc2-c2ccccc2)SC1=S | > 64 | 32 (≈ 75.9 µM) | 32 (≈ 75.9 µM) | 32 (≈ 75.9 µM) | > 64 | 64 (≈ 152 µM) | 32 (≈ 75.9 µM) | 64 (≈ 152 µM) |
| O=C(O)CN1C(=O)/C(=C/c2cn(-c3ccccc3)nc2-c2cccc(Br)c2)SC1=S | > 64 | 64 (≈ 128 µM) | 8 (≈ 16 µM) | 16 (≈ 32 µM) | > 64 | 8 (≈ 16 µM) | 16 (≈ 32 µM) | 32 (≈ 63.9 µM) |
| O=C(O)CCCN1C(=O)/C(=C/c2cn(-c3ccccc3)nc2-c2ccc(Cl)cc2Cl)SC1=S | > 64 | 4 (≈ 7.72 µM) | 4 (≈ 7.72 µM) | 4 (≈ 7.72 µM) | > 64 | 8 (≈ 15.4 µM) | 4 (≈ 7.72 µM) | 4 (≈ 7.72 µM) |
| O=C(O)CCCCN1C(=O)/C(=C/c2cn(-c3ccccc3)nc2-c2ccc(Cl)cc2)SC1=S | > 64 |  |  |  | > 64 | > 64 |  | > 64 |
| O=C(O)CN1C(=O)/C(=C/c2cn(-c3ccccc3)nc2-c2ccccc2F)SC1=S | > 64 | 64 (≈ 146 µM) | 64 (≈ 146 µM) | 64 (≈ 146 µM) | > 64 | 64 (≈ 146 µM) | 64 (≈ 146 µM) | 64 (≈ 146 µM) |
| COc1ccc(-c2nn(-c3ccccc3)cc2/C=C2\SC(=S)N(CC(=O)O)C2=O)cc1 | > 64 |  |  |  | > 64 | > 64 |  | > 64 |
| O=C(O)CCCCCN1C(=O)/C(=C/c2cn(-c3ccccc3)nc2-c2ccc(Cl)cc2Cl)SC1=S | > 64 | 4 (≈ 7.32 µM) | 4 (≈ 7.32 µM) | 32 (≈ 58.6 µM) | > 64 | 32 (≈ 58.6 µM) | 32 (≈ 58.6 µM) | 8 (≈ 14.6 µM) |
| O=C(O)CN1C(=O)/C(=C/c2cn(-c3ccccc3)nc2-c2ccc(Cl)cc2Cl)SC1=S | > 64 | 8 (≈ 16.3 µM) | 4 (≈ 8.16 µM) | 4 (≈ 8.16 µM) | > 64 | 8 (≈ 16.3 µM) | 8 (≈ 16.3 µM) | 8 (≈ 16.3 µM) |
| COc1ccccc1-c1nn(-c2ccccc2)cc1/C=C1\SC(=S)N(CC(=O)O)C1=O | > 64 |  |  |  | > 64 | > 64 |  | > 64 |
